{
  "source": "patent US7265091B2",
  "about": "“Methods and compositions for treating male erectile dysfunction” (The Regents of the University of California, priority 2000, dated 2007)",
  "key": {"[1]": {"system": "Rat Model of Traumatic Arteriogenic Erectile Dysfunction", "text": "Bipolar platinum-wire electrodes were used to stimulate the cavernous nerve. The exposed end of the electrodes were hooked around the nerve to be stimulated, with the positive electrode being positioned proximally and the negative electrode two to three mm distally. Stimulus parameters were 1.5 volts, frequency of 20 pulses per second, pulse width of 0.2 msec, and the duration of 50 seconds. Intracavernous pressure was monitored and recorded by inserting a number 23 scalp vein needle to one of the crura and connected to a pressure monitor."}, "[2]": {"system": "dorsal nerve, intracavernosal smooth muscle and endothelium", "details": "ligated rats, 4 μg of VEGF", "procedure": "The penis was dissected, thinly sliced (˜1 mm thick) and placed in Karnovsky's fixative (1% para-formaldehyde/3% glutaraldehyde/0.1 M sodium cacodylate buffer, pH 7.4) at room temperature for 30 minutes and then stored at 4° C. The fixed tissue was then rinsed in buffer, post-fixed in 2% aqueous OsO4, and stained en bloc with uranyl acetate before being dehydrated in ethanol, cleared in propyline oxide, and embedded in eponate 12 (Ted Pella Co., Redding, Calif.). Thick sections were cut and stained with toludine blue, examined under light microscope to select the area to be thin-sectioned. Thin sections were cut by Leica ultracut E microtome (Bannockburn, Ill.), stained with uranyl acetate and Reynold's Lead to enhance contrast and examined under Philips Tecnai 10 electron microscope (Eidhoven, Netherlands)."}, "[3]": {"system": "dorsal nerve, intracavernous smooth muscle cells and endothelial cells", "assay": "Transmission electron microscopy of penile tissue (Example 2)", "format": "in vivo, rat", "text": "Thick sections were cut and stained with toluidine blue to select specific areas for thin sectioning. Thin sections were cut, stained with both uranyl acetate and Reynold's Lead, and examined under the Phillips Tecnai 10 transmission electron microscope. Penile tissues from 4 randomly chosen rats in each subgroups were subjected to electron microscopic examinations."}, "[4]": {"system": "Erectile Dysfunction Induced by Hypercholesterolemia in a Rat Model", "assay": "Erectile function in rats fed a high cholesterol diet (Example 5)", "format": "in vivo", "details": "6 months cholesterol diet, 4 months after intracavernous treatment", "procedure": "Twenty-one Sprague-Dawley rats were used. All rats were fed a 2.5% cholesterol diet with added lard starting at 2 weeks of age for 6 months. The rats were divided into three groups. All groups after two months of a high cholesterol diet underwent serum evaluation of cholesterol and intracavernous injection of saline or treatment. Group 1, the control group, received intracavernous injection of saline, group 2, the VEGF group, received intracavernous injection of 4 ug of VEGF, and group 3, the AAV-BDNF group received 15 ug of BDNF. After six months of cholesterol diet and 4 months of treatment, all rats were subjected to cavernous nerve electrostimulation, cavernosometry with intracavernous papaverine injection, and infusion cavernosometry with heparinized saline to measure erectile function."}, "[5]": {"system": "cavernous nerve injury in rats", "assay": "Maximal intracavernous pressure after bilateral cavernous nerve freezing (Example 9, VENT)", "format": "in vivo, rat", "details": "3 months after bilateral cavernous nerve freezing, intracavernous injection", "procedure": "Three months old Sprague-Dawley rats (N=30) were used: 6 underwent a sham operation; 24 underwent bilateral cavernous nerve freezing and then randomly divided into four groups of 6 each. The four groups of rats received intracavernous injection of one of the following: 1) phosphate buffered saline (PBS), 2) VEGF protein (4 μg), 3) adeno-associated virus (AAV)-BDNF, and 4). VEGF+AAV-BDNF. Erectile function was assessed by cavernous nerve electrostimulation 3 months later and samples of penile tissue were obtained for electron microscopy and immunohistochemical studies."}, "[6]": {"system": "outgrowing blood vessels in artery-muscle co-culture", "assay": "Artery-muscle co-culture", "format": "cell-based", "text": "We extended our above angiogenesis model to include muscles in a co-culture system. The source of muscle was corpus cavernosum, urethra sphincter, or bladder. […] In addition, the combination of VEGF and PDGF encouraged more extensive contacts between the outgrowing vessels with the muscle. More studies with either single or a combination of other growth factors and the molecular mechanism of vessel growth are currently underway. Once the best growth factor or combinations are identified, we will perform in vivo studies in rats with severe vasculogenic ED to see if the in vitro assay helps identify the best angiogenins."}, "VSMC (aorta SMC)": {"system": "VSMC (aorta SMC)", "details": "VSMC from 16-weeks-old rats", "quoted_text": "Each primary culture of CSMC was prepared from the corpora cavernosa of 2-3 rats by the following procedure. The penis was cleared of the urethra, blood vessels, fat and connective tissue. The remaining smooth muscle tissue was washed 3 times in sterile PBS (phosphate-buffered saline) and cut into 2-3 mm^3 segments. The segments were placed evenly onto a 100-mm cell culture dish (Falcon-Becton Dickinson Labware, Franklin Lakes, N.J.) inside a cell culture hood. Approximately 10 min later, 10 ml of Dulbecco's Modified Eagle Medium (DMEM) containing penicillin (100 units/ml), streptomycin (100 μg/ml), and 10% FBS was carefully pipetted into the dish. The dish was then kept undisturbed in a humidified 37° C. incubator with 5% CO2. Five days later, tissue segments that have detached from the dish were removed, and the medium was replaced with fresh medium. Another 5 days later, all tissue segments were removed and the medium was again replaced with fresh medium. When small islands of cells were noticeable, they were trypsinized and transferred to a fresh culture dish. […]\nCell proliferation assays were performed with the CellTiter-96 kit from Promega Inc. (Madison, Wis.). […] After 4 hr of further incubation at 37° C. in the humidified, 5% CO2 incubator, color development, which reflects cell numbers, was recorded with a plate reader (Molecular Devices Corp., Sunnyvale, Calif.) at 490-nm absorbance. […]"}, "Penile dorsal arteries": {"system": "Penile dorsal arteries", "details": "serum-free medium, 3 days", "quoted_text": "Penile dorsal arteries were isolated from rats and cut into 1-mm segments under a 10× microscope. Each segment was attached to a Matrigel-coated coverslip, which was then put in a 60-mm culture dish. Serum-free medium with or without VEGF was added and the arterial culture was incubated for 3 days."}, "[7]": {"details": "castrated rats treated with VEGF or AAV-VEGF (pooled)"}},
  "note": "Read-outs that look alike come from different tables or passages of the source.",
  "data": [
    {"substance": "VEGF", "values": [
      {"measurement": "Peak sustained intracavernous pressure during electrostimulation of the cavernous nerves", "setting": "[1]; 2 μg VEGF intracavernous, Week 1", "value": "23.50 ± 2.38", "unit": "cm H20"},
      {"measurement": "Peak sustained intracavernous pressure during electrostimulation of the cavernous nerves", "setting": "[1]; 2 μg VEGF intracavernous, Week 2", "value": "43.00 ± 8.37", "unit": "cm H20"},
      {"measurement": "Peak sustained intracavernous pressure during electrostimulation of the cavernous nerves", "setting": "[1]; 2 μg VEGF intracavernous, Week 6", "value": "69.00 ± 8.83", "unit": "cm H20"},
      {"measurement": "Peak sustained intracavernous pressure during electrostimulation of the cavernous nerves", "setting": "[1]; 4 μg VEGF intracavernous, Week 1", "value": "71.17 ± 16.89", "unit": "cm H20"},
      {"measurement": "Peak sustained intracavernous pressure during electrostimulation of the cavernous nerves", "setting": "[1]; 4 μg VEGF intracavernous, Week 2", "value": "86.25 ± 8.18", "unit": "cm H20"},
      {"measurement": "Peak sustained intracavernous pressure during electrostimulation of the cavernous nerves", "setting": "[1]; 4 μg VEGF intracavernous, Week 6", "value": "96.67 ± 13.50", "unit": "cm H20"},
      {"measurement": "improvement in intracavernous pressure compared with the PBS-treated group", "setting": "[1]; 2-μg and 4-μg groups, week 6", "value": "statistically significant improvement"},
      {"measurement": "recovery of erectile function", "setting": "[1]; 4-μg group, weeks 1 and 2", "value": "moderate recovery"},
      {"measurement": "appearance of endothelium of sinusoids and capillaries", "setting": "[2]; 2 and 6-week groups", "value": "endothelial cell hypertrophy and hyperplasia"},
      {"measurement": "appearance of intracavernosal smooth muscle cells", "setting": "[2]; 2 and 6-week groups", "value": "most of the smooth muscle cells appeared normal"},
      {"measurement": "mean diameter of the myelinated axons, dorsal nerve", "setting": "[2]; week 6", "value": "6.19±2.38", "unit": "μm"},
      {"measurement": "mean diameter of the nonmyelinated axons, dorsal nerve", "setting": "[2]; week 6", "value": "0.82±0.45", "unit": "μm"},
      {"measurement": "endothelial cells lining capillaries and sinusoids", "setting": "[3]; castrated rats", "value": "endothelial hypertrophy and hyperplasia"},
      {"measurement": "mean diameter of non-myelinated axons, dorsal nerve", "setting": "[3]; [7]", "value": "0.96±0.33", "unit": "μm"},
      {"measurement": "mean diameter of the myelinated nerve, dorsal nerve", "setting": "[3]; [7]", "value": "2.36±0.92", "unit": "μm"},
      {"measurement": "mean thickness of myelin sheath, dorsal nerve", "setting": "[3]; [7]", "value": "0.93±0.44", "unit": "μm"},
      {"measurement": "intracavernous smooth muscle morphology", "setting": "[3]; castrated rats, compared to castrated+Lac Z rats", "value": "arranged in clusters with minimal intercellular spaces"},
      {"measurement": "effect on erectile dysfunction caused by high cholesterol diet", "setting": "[4]", "value": "seem to reverse the erectile dysfunction"},
      {"measurement": "sustained intracavernous pressures during the pharmacologic erection phase of cavernosometry, vs high cholesterol controls", "setting": "[4]", "value": "significantly higher"},
      {"measurement": "maximal intracavernous pressure (MICP), mean±SEM", "setting": "[5]", "value": "37.33±3.29", "unit": "cm H2O"},
      {"measurement": "cell growth in artery-muscle co-culture", "setting": "[6]", "value": "encourage the growth of endothelial cells"},
      {"measurement": "effect on growth of VSMC", "setting": "VSMC (aorta SMC)", "value": "did not stimulate growth"},
      {"measurement": "length of budding new blood vessels vs untreated culture", "setting": "Penile dorsal arteries", "value": "significantly longer"}
    ]}
  ]
}
